Source: patent US7563862B2, “Neural regeneration peptides and methods for their use in treatment of brain damage” (Neuren Pharmaceuticals Limited, priority 2001, dated 2009)
Ends that are not written are not given here.

System: embryonic striatal cells
Experiment: haptotactic migration assay, striatal cells
Format: cell-based, rat
Details: dishes coated with 150 ng, 48 hrs
Description: To test the cell adhesion and neuronal migration inducing properties of the NRPs a haptotactic migration cell assay was developed (Lu et al.,2001). For this purpose Transwell® cell culture dishes (Costar) with fitting inserts having pores therein with a 12 μm pore size were used to cultivate striatal and neocortical cells. In general, a test agent was adhered to the surface of a culture dish and an insert having pores was placed in culture medium over but not in contact with the surface of the culture dish. Test cells were placed in the inserts, and any cells migrating through the pores and onto the surface of the culture dish reflected chemattractiveness by the test molecule. Under these conditions, the surface of the culture dish would, over time, release some NRP molecules into the culture medium. It can be appreciated that the concentration of “free” NRP would be greater nearer the surface of the culture dish than at distances farther away from the culture dish, thereby creating a gradient in NRP concentration. […] By counting the number and morphology of such migrant cells, effects of NRPs on neuronal migration and differentiation can be evaluated. […]
For seeding striatal cells, 1.5 ml of Neurobasal/B27 medium was put into the culture dishes and 0.5 ml of NeurobasaVB27 medium was put into the insert. The assay was ready for cell seeding. […]

KDPEARRAPGSLHPCLAAS-NH2 [NRP-2 segment KS, 19-mer fragment of NRP-2]
migration induction of striatal neurons: substantial migration induction
